According to patent publication US20240302379A1, “METHODS FOR IDENTIFYING AND MONITORING INTERACTIONS OF PROTEIN WITH LIGAND” (Agency for Science, Technology and Research, priority 2020, published 2024):
“Also recorded” adds a separate entry of the source.

Columns and labels:
[1] = biological target: T1, DHFR-HiBiT (Homo sapiens, UniProt P00374); assay: UCEP-Screen in HEK293 DHFR-HiBiT reporter cells (bioluminescence); assay type: binding; details: 20 μM, 10 minutes
T1 construct: expressed in transfected cells; host or cells: Flp-In T-Rex HEK293
T1 sequence (P00374 1-187): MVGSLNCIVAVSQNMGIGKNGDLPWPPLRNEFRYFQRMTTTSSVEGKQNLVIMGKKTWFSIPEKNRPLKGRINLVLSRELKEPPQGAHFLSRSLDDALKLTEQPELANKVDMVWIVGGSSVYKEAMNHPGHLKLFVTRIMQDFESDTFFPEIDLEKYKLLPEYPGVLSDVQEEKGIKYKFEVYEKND
Method: UCEP conditions such as denaturant concentration and dilution factor should be optimized for each target before performing any HTS. Here, Flp-In T-Rex cells were used for assay development. Cells were seeded into the 96-well clear bottom white microplate in growth medium and the expression of HiBiT-tagged protein was induced with tetracycline. Cells are treated with chemical of interest for specific duration, before incubation in PBS containing different concentrations of urea. Urea was then diluted with PBS. HiBiT lytic detection buffer containing LgBiT and substrate was then added. Bioluminescence was then measured.

[2] = system: K562 living cells; assay: UCEP-ID MR experiment (proteome-wide target deconvolution by quantitative LC-MS/MS); details: K562, 10 μM, 10 minutes
[3] = biological target: T2, HER2-HiBIT (Homo sapiens, UniProt P04626); assay: UCEP in HER2-HiBIT reporter cells with 1% CHAPS (bioluminescence); assay type: binding; details: 3M to 5M urea
T2 construct: expressed in transfected cells; host or cells: reporter cells
T2 sequence (P04626 23-1255): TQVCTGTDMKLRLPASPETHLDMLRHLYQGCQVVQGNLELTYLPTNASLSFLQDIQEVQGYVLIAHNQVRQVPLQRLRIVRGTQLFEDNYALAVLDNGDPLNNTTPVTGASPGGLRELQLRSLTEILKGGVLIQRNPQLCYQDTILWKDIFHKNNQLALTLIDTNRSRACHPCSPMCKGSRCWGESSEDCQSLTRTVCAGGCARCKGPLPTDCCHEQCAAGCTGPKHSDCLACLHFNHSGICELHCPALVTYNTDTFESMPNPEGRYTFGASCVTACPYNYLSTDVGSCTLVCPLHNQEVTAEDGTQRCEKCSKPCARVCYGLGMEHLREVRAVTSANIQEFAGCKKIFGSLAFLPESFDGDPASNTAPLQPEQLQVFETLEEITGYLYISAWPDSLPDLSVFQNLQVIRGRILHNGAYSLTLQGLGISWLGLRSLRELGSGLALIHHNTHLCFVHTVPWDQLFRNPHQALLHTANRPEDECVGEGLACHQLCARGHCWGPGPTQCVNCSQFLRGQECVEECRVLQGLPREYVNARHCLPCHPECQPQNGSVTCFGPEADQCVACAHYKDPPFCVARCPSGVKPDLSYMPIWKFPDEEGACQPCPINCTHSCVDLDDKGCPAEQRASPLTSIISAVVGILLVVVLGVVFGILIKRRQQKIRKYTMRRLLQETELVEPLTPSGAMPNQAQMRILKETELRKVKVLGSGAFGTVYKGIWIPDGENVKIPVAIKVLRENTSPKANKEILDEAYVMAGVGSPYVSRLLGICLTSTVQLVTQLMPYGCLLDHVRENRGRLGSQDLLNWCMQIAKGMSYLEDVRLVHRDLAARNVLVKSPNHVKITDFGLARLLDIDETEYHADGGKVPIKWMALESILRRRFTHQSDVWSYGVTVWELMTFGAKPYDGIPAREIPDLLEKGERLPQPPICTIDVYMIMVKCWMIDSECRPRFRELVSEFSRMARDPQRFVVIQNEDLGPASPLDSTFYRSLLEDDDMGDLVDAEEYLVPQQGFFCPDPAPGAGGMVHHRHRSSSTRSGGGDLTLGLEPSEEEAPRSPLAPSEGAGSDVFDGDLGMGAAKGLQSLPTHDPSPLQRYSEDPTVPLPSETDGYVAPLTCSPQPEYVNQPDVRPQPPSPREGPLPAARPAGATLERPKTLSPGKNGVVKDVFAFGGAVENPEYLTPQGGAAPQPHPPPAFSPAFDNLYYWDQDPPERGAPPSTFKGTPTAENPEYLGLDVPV
Text: In the Flp-In T-Rex system, modified pENTR1A plasmids, entry vectors, are used to clone protein of interest. pENTR1A plasmids are modified to include thirty-three nucleotide sequences of HiBiT for tagging protein of interest at either N- or C terminus. A HiBiT-tagged protein of interest is transferred to one of gateway destination vectors, pFRT/TO/DEST or pEF5/FRT/V5-DEST, via gateway LR reaction. Flp-In T-Rex HEK293 cells are transfected with the final destination vector that include HiBiT-tagged gene of interest and pOG44 vector expressing Flp recombinase. Cells are selected with Hygromycin and Blasticidin to remove untransformed cells. In the CRISPR system, the ribonucleoprotein complex including Cas9, crRNA, tracrRNA is formed in vitro. Cells are electroporated to deliver the Cas9 ribonucleoprotein complex along with a single-stranded donor oligonucleotide. Next day, cells are sorted as a single cell into a transparent 96-well tissue culture microplate and incubated until they became confluent.
UCEP conditions such as denaturant concentration and dilution factor should be optimized for each target before performing any HTS. Here, Flp-In T-Rex cells were used for assay development. Cells were seeded into the 96-well clear bottom white microplate in growth medium and the expression of HiBiT-tagged protein was induced with tetracycline. […] Bioluminescence was then measured. […]

SMILES	DHFR-HiBiT protein stabilization upon UCEP [1]	other results
CNC(=O)c1ccc(N2C(=S)N(c3ccc(C#N)c(C(F)(F)F)c3)C(=O)C2(C)C)cc1F [Enzalutamide]	did not significantly change	–
CN(Cc1cnc2nc(N)nc(N)c2n1)c1ccc(C(=O)N[C@@H](CCC(=O)O)C(=O)O)cc1 [MTX, methotrexate]	–	Binding targets identified by UCEP-ID [2]: DHFR
CN[C@@H]1C[C@H]2O[C@@](C)([C@@H]1OC)n1c3ccccc3c3c4c(c5c6ccccc6n2c5c31)C(=O)NC4 [Staurosporine]	did not significantly change	–
Cc1cc(Nc2ncnc3ccc(NC4=NC(C)(C)CO4)cc23)ccc1Oc1ccn2ncnc2c1 [Tucatinib]	–	Stabilization of HER2-HiBIT (fold change of bioluminescence vs control) [3]: maximum stabilization of HER2 at 3M urea; also recorded: increased stability
